For assay [1] the following is noted: literature (Dávalos, 2004); cited from earlier work.
In assay [2] the test system is Human hormone dependent mammary cancer cells (MCF-7). Kind of assay: MCF-7 growth inhibition bioassay of quercetin and flavonol-rich black bean extract. Format: cell-based. Particulars: quercetin alone. From the text: Human hormone dependent mammary cancer cells (MCF-7) were used to conduct bioassays to test growth inhibitory effects of commercially available quercetin alone and in presence of other flavonols and phytochemicals found in black bean extracts described in Table 2.

The subject of assay [3] is MCF-7 cells. Particulars: cited from earlier work.
Assay [4] concerns hormone dependent mammary cancer cells MCF-7. Kind of assay: MCF-7 proliferation in hormone-free serum, 13 days incubation. Type of assay: cell-based. On the procedure:
Methanol extracts of raw and 5-day malted NG-Perla black beans were obtained by the methods described in Examples 2 and 8, respectively, and used to test their effects on hormone dependent mammary cancer cell proliferation (MCF-7).
Since isoflavones found in black beans may show estrogenic activity, and MCF-7 are hormone dependent mammary cancer cells; tests were conducted in hormone-free serum to discard the possibility of enhanced proliferation instead of inhibition. […] Thus, MCF-7 cells were first cultured with purified commercial standards of genistein (Indofine Chemical Company, Hillsborough, N.J.) and genistin (Sigma-Aldrich Chem. Co., St. Louis, Mo.) as positive controls with the aim of testing their effects on proliferation of this cancer cell line.

pIC50: −log10 of the molar value.

As for `COc1ccc(O)c(C(C)(C)C)c1` [BHA, butylated hydroxyanisole], the antioxidant value in assay [1] is 2.43 TE.

As for `O=c1c(O)c(-c2ccc(O)c(O)c2)oc2cc(O)cc(O)c12` [Quercetin], the “inhibitory effect on MCF-7 growth” value in assay [2] is “did not have any inhibitory effect”. Besides, the antioxidant value in assay [1] is recorded as 10.5 TE. The pIC50 in assay [3] (regular serum conditions (Rodgers, 1998), read-out: concentration needed to inhibit 50% of MCF-7 cancer cells) was not above 3.70.

For the compound `O=C(O)/C=C/c1ccc(O)c(O)c1` [caffeic acid], the antioxidant value in assay [1] is reported as 6.63 TE.

For `O=c1c(-c2ccc(O)cc2)coc2cc(O)cc(O)c12` [genistein], the pIC50 in assay [4] (Homo sapiens, MCF7, 312 h, 13 days incubation, estimated by curve fit to FIG. 12, read-out: concentration required to lower the cell population doublings from 6 to 3 (50% inhibition)) was 4.73.

Turning to `O=c1c(-c2ccc(O)cc2)coc2cc(O[C@@H]3O[C@H](CO)[C@@H](O)[C@H](O)[C@H]3O)cc(O)c12` [genistin], the “proliferation inhibition of MCF-7” value in assay [4] (even at concentrations higher than 20 μM) is “did not show proliferation inhibition”.

As for `O=c1c(O)c(-c2cc(O)c(O)c(O)c2)oc2cc(O)cc(O)c12` [myricetin], in assay [3] (regular serum conditions), the “inhibition of MCF-7 cells” value is “do not inhibit”.

(Values after patent US7763292B2, “Cancer cell growth inhibition by black bean (Phaseolus vulgaris L) extracts” (Instituto Technologico y de Estudios Superiores de Monterrey, priority 2004, dated 2010).)
